Measured values taken from patent US11786497B2, “High penetration prodrug compositions of retinoids and retinoids-related compounds” (Techfields Pharma Co., Ltd., priority 2007, dated 2023).
Blank lines part the entries; values can stand above or below the molecule they belong to.

Columns and labels:
[1] = In vitro penetration across human skin in modified Franz cells
Description: In each case, the vehicle was a pH 7.4 phosphate buffer (0.2 M).
Penetration rates of HPPs and their parent drugs through human skin were measured in vitro by modified Franz cells. A Franz cell had two chambers, the top sample chamber and the bottom receiving chamber. The human skin tissue (360-400 μm thick) that separated the top and the receiving chambers was isolated from the anterior or posterior thigh areas.
A compound tested (0.2 mL, 5% in 0.2 M phosphate buffer, pH 7.4) were added to the sample chamber of a Franz cell. The receiving chamber contains 2 ml of 2% bovine serum albumin in saline which was stirred at 600 rpm. The amount of the tested compound penetrating the skin was determined by high-performance liquid chromatography (HPLC) method.

[2] = Irritative effect or discomfort on skin of mice after topical application; type: in vivo; conditions: 0.1 ml of 0.5% in pH 7.4 phosphate buffer to back of nude mice twice per day, 1 week
Description: Irritative effect or discomfort in the skin of mice of HPPs of retinoids or retinoid-related compounds was evaluated during a period of 1 week after the topical application of 0.1 ml of 0.5% of the respective test drug in pH 7.4 phosphate buffer (0.2 M) to the back of nude mice twice per day.

[3] = Conversion of HPPs to parent drugs in human plasma (half life); type: in vitro ADME; conditions: 37° C., HPLC
Description: HPPs of retinoids or retinoid-related compounds converted to the parent retinoids or retinoid-related compounds quickly in good yield in human plasma.
A HPP of retinoids or retinoid-related compound (10 mg) was dissolved in 0.1 ml of 0.2M pH 7.4 phosphate buffer. 1 ml of human plasma, preheated to 37° C., was added into the mixture. The mixture was kept in a water bath at 37° C., and at every 2 min intervals 0.2 ml of samples were withdrawn and added to 0.4 ml of methanol to precipitate the plasma protein. The samples were centrifuged for 5 min and analyzed by HPLC.

[4] = system: human breast cancer cells (BCAP-37); assay: Antitumor activity against human breast cancer cells implanted into nude mice; type: in vivo, nude mice (BALB); conditions: 50 μl of 1% in 0.2M pH 7.4 phosphate buffer, topically to implanted area twice per day from day 3; control 100% incidence
Description: For evaluation of antitumor activity of these prodrugs, human breast cancer cells (BCAP-37) were implanted into nude mice (BALB). […] The average weight of the treated group was 25 grams and that of the control group was 21 grams.

[5] = system: human acute promyelocytic leukemia(APL) line; assay: Survival of mice implanted with human acute promyelocytic leukemia line; type: in vivo; conditions: for None Disease Rate at day 160: animals out of 7; for Life Elongation Rate: control = 100; for Survival Period: n=7
Description: For evaluation of antitumor activity, a human acute promyelocytic leukemia(APL) line derived from a patient with acute promyelocytic leukemia (APL) was implanted into mice.

[6] = Solubility in water; type: physicochemical
Description: (§1) 30 g (0.1 mol) of sodium 9-cis-retinoate was dissolved in 100 ml of acetonitrile. 26.1 g (0.1 mol) of 2-Bromo-N,N-diethylethylamine·HBr was added into the reaction mixture. The mixture was stirred for overnight at RT. The solvents were evaporated off. 200 ml of ethanol was added into the residue. The solid was removed by filtration. The solution was evaporated to dryness. 100 ml of ethyl acetate was added into the reaction mixture. Hexane (100 ml) was added. The solid product was collected by filtration. After drying, it yielded 36 g of the desired product (75%). Hygroscopic product; solubility in water: 30 mg/ml; elementary analysis: C26H42BrNO2; MW: 480.52; calculated % C: 64.99; H: 8.81; Br: 16.63; N: 2.91; O: 6.66; found % C: 65.03; H: 8.80; Br: 16.60; N: 2.89; O: 6.68.
as §1, with “13-cis-retinoate” for “9-cis-retinoate”, “Hygroscopic product; solubility in water: 30 mg/ml; elementary analysis: C26H42BrNO2; MW: 480.52; calculated % C: 64.99; H: 8.81; Br: 16.63; N: 2.91; O: 6.66; found % C: 65.03; H: 8.80; Br: 16.60; N: 2.89; O: 6.68.” left out

[7] = system: Lesions similar to psoriasis induced by Malassezia; assay: Malassezia-induced lesions similar to psoriasis on rabbit skin; type: in vivo, Chinese white rabbits; conditions: 200 μl of 0.05% aqueous solution, topical twice per day, 3 hours after Malassezia; control lesions became worse
Description: Heavy suspensions of Malassezia [Rosenberg, E. W., et al., Mycopathologia, 72, 147-154 (1980)] were applied to shaved skin on the backs of Chinese white rabbits (n=4×10) twice (at 7 am and 7 pm respectively) per day for 2 weeks. […] The control group was only applied with Malassezia.

[8] = parent compound, 5% suspension in pH 7.4 phosphate buffer (0.2 M), isolated human skin, Franz cells, n=5
[9] = 10 mg/kg per day, transdermally

SMILES: CC1=C(/C=C/C(C)=C/C=C/C(C)=C/COC(=O)CN(C)C)C(C)(C)CCC1.Cl [retinyl N,N-dimethyl-2-aminoacetate·HCl]
In vitro Penetration Rate (apparent flux) of HPPs ([1]; pH 7.4): 1.21 mg/cm^2/h
signs of irritative effect or discomfort [2]: None of any signs of irritative effect or discomfort
Half life of HPPs in plasma [3]: 20 ± 1 min

SMILES: CC1=C(/C=C/C(C)=C/C=C/C(C)=C/CO)C(C)(C)CCC1 [vitamin A (retinol), retinol]
In vitro Penetration Rate (apparent flux) of Parent compounds ([1]; human, 5 %, pH 7.4): 0.005 mg/cm^2/h

SMILES: C=C(c1ccc(C(=O)OCCN(CC)CC)cc1)c1cc2c(cc1C)C(C)(C)CCC2(C)C.Cl [N,N-diethylaminoethyl 4-[1-(5,6,7,8-tetrahydro-3,5,5,8,8-pentamethyl-2-naphthalenyl)ethenyl]benzoate·HCl]
In vitro Penetration Rate (apparent flux) of HPPs ([1]; pH 7.4): 0.35 mg/cm^2/h
tumor seen after 20 days [4]: none of tumor was seen
signs of irritative effect or discomfort [2]: None of any signs of irritative effect or discomfort
Half life of HPPs in plasma [3]: 15 ± 1 min

SMILES: Br.CC1=C(/C=C/C(C)=C\C=C\C(C)=C\C(=O)OCC2CCCN2)C(C)(C)CCC1 (stereo not drawn) [9-cis-retinoic acid 2-pyrrolidinemethyl ester·HBr]
None Disease Rate at day 160 ([5]; 5 mg/kg per day, transdermally): 3/7
Life Elongation Rate ([5]; 5 mg/kg per day, transdermally): 230%
Survival Period ([5]; 5 mg/kg per day, transdermally): 72.5 ± 4.6 days
None Disease Rate at day 160 [5, 9]: 5/7
Life Elongation Rate [5, 9]: 385%
Survival Period [5, 9]: 121.2 ± 4.8 days

SMILES: Br.CC1=C(/C=C/C(C)=C\C=C\C(C)=C\C(=O)OCCN2CCCCC2)C(C)(C)CCC1 [9-cis-retinoic acid 1-piperidineethyl ester·HBr]
In vitro Penetration Rate (apparent flux) of HPPs ([1]; HPP, 5% solution in pH 7.4 phosphate buffer (0.2 M), isolated human skin, Franz cells, n=5): 0.67 mg/cm^2/h

SMILES: CC1=C(/C=C/C(C)=C\C=C\C(C)=C\C(=O)O)C(C)(C)CCC1 [9-cis-retinoic acid (alitretinoin), 9-cis-retinoic acid, reference compound]
In vitro Penetration Rate (apparent flux) of Parent compounds [1, 8]: 0.005 mg/cm^2/h
None Disease Rate at day 160 ([5]; 5 mg/kg per day, orally): 1/7
Life Elongation Rate ([5]; 5 mg/kg per day, orally): 144%
Survival Period ([5]; 5 mg/kg per day, orally): 45.5 ± 2.3 days
None Disease Rate at day 160 ([5]; 10 mg/kg per day, orally): 3/7
Life Elongation Rate ([5]; 10 mg/kg per day, orally): 207%
Survival Period ([5]; 10 mg/kg per day, orally): 65.2 ± 4.1 days

SMILES: CC1=C(/C=C/C(C)=C/C=C/C(C)=C/C(=O)O)C(C)(C)CCC1 [all-trans-retinoic acid (tretinoin), all-trans-retinoic acid, reference compound]
In vitro Penetration Rate (apparent flux) of Parent compounds [1, 8]: 0.005 mg/cm^2/h
None Disease Rate at day 160 ([5]; 5 mg/kg per day, orally): 0/7
Life Elongation Rate ([5]; 5 mg/kg per day, orally): 158%
Survival Period ([5]; 5 mg/kg per day, orally): 49.7 ± 3.6 days
None Disease Rate at day 160 ([5]; 10 mg/kg per day, orally): 2/7
Life Elongation Rate ([5]; 10 mg/kg per day, orally): 249%
Survival Period ([5]; 10 mg/kg per day, orally): 78.5 ± 3.7 days

SMILES: C=C(c1ccc(C(=O)O)cc1)c1cc2c(cc1C)C(C)(C)CCC2(C)C [bexaroten (Targretin ®), reference compound]
apparent flux value of parent drug ([1]; lowest detectable flux 1 μg/cm^2/h, considered not detectable): 1 μg/cm^2/h
In vitro Penetration Rate (apparent flux) of Parent compounds [1, 8]: 0.001 mg/cm^2/h
None Disease Rate at day 160 ([5]; 5 mg/kg per day, orally): 3/7
Life Elongation Rate ([5]; 5 mg/kg per day, orally): 205%
Survival Period ([5]; 5 mg/kg per day, orally): 64.5 ± 3.7 days
None Disease Rate at day 160 ([5]; 10 mg/kg per day, orally): 5/7
Life Elongation Rate ([5]; 10 mg/kg per day, orally): 302%
Survival Period ([5]; 10 mg/kg per day, orally): 95.2 ± 3.9 days

SMILES: Br.CC1=C(/C=C/C(C)=C/C=C/C(C)=C/C(=O)OCCN2CCCCC2)C(C)(C)CCC1
None Disease Rate at day 160 ([5]; 5 mg/kg per day, transdermally): 4/7
Life Elongation Rate ([5]; 5 mg/kg per day, transdermally): 278%
Survival Period ([5]; 5 mg/kg per day, transdermally): 87.8 ± 3.4 days
None Disease Rate at day 160 [5, 9]: 5/7
Life Elongation Rate [5, 9]: 429%
Survival Period [5, 9]: 135.2 ± 5.9 days
lesions 10 days after application of Malassezia and HPP [7]: resolved

SMILES: C=C(c1ccc(C(=O)OCN2CCCC2)cc1)c1cc2c(cc1C)C(C)(C)CCC2(C)C.Cl
None Disease Rate at day 160 ([5]; 5 mg/kg per day, transdermally): 5/7
Life Elongation Rate ([5]; 5 mg/kg per day, transdermally): 306%
Survival Period ([5]; 5 mg/kg per day, transdermally): 96.5 ± 4.4 days
None Disease Rate at day 160 [5, 9]: 6/7
Life Elongation Rate [5, 9]: 529%
Survival Period [5, 9]: 166.5 ± 5.4 days

The next lines start with results.

In vitro Penetration Rate (apparent flux) of Parent compounds [1, 8]: 0.005 mg/cm^2/h
SMILES: CC1=C(/C=C/C(C)=C/C=C/C(C)=C\C(=O)O)C(C)(C)CCC1 [13-cis-retinoic acid (isotretinoin), 13-cis-retinoic acid]

In vitro Penetration Rate (apparent flux) of HPPs ([1]; pH 7.4): 0.85 mg/cm^2/h
solubility in water [6]: 30 mg/mL
Half life of HPPs in plasma [3]: 13 ± 1 min
SMILES: Br.CCN(CC)CCOC(=O)\C=C(C)/C=C/C=C(C)/C=C/C1=C(C)CCCC1(C)C [N,N-diethylaminoethyl 13-cis-retinoate·HBr]
signs of irritative effect or discomfort [2]: None of any signs of irritative effect or discomfort

solubility in water [6]: 30 mg/mL
Half life of HPPs in plasma [3]: 12 ± 1 min
SMILES: Br.CCN(CC)CCOC(=O)/C=C(C)/C=C/C=C(C)\C=C\C1=C(C)CCCC1(C)C [N,N-diethylaminoethyl 9-cis-retinoate·HBr]
tumor seen after 20 days [4]: none of tumor was seen
signs of irritative effect or discomfort [2]: None of any signs of irritative effect or discomfort
lesions 10 days after application of Malassezia and HPP [7]: resolved

In vitro Penetration Rate (apparent flux) of HPPs ([1]; pH 7.4): 1.25 mg/cm^2/h
Half life of HPPs in plasma [3]: 11 ± 1 min
SMILES: Br.CCN(CC)CCOC(=O)/C=C(C)/C=C/C=C(C)/C=C/C1=C(C)CCCC1(C)C [N,N-diethylaminoethyl all-trans-retinoate·HBr]
signs of irritative effect or discomfort [2]: None of any signs of irritative effect or discomfort
